Patent publication US11414429B2, “Compound or pharmaceutically acceptable salt thereof” (RIKEN, priority 2016, dated 2022)
pIC50: −log10 of the molar value.

How the values were obtained:
tankyrase 2 (TNKS 2) = biological target: T1, tankyrase 2 (TNKS 2) (Homo sapiens, UniProt Q9H2K2); assay: Tankyrase inhibitory activity test (ELISA, self-polyADP ribosylation), tankyrase 2; format: biochemical; details: tankyrase 2, ELISA, self-polyADP ribosylation; read-out: TNKS2 inhibitory activity (IC50 class)
T1 construct: 613-1, 116aa; made in house; host or cells: cell-free protein synthesis system
Procedure: (§1) (Test Example 1) Tankyrase Inhibitory Activity Test
(§2) For each of the compounds obtained in Examples (the test target compounds), the tankyrase inhibitory activity (an inhibitory activity against tankyrase 1 (TNKS 1) and an inhibitory activity against tankyrase 2 (TNKS 2)) was evaluated by measuring the enzymatic activity of tankyrase 1 and the enzymatic activity of tankyrase 2 by the ELISA technique using self-polyADP ribosylation as an index. First, Flag-tag fusion tankyrase 1 (1,024-1,327aa, SAM+PARP) and tankyrase 2 (613-1, 116aa, ANK5+SAM+PARP) were each synthesized by a cell-free protein synthesis system and diluted with a Tris buffer (50 mM Tris-HCl (pH 8.0), 150 mM NaCl, 10% glycerol). Then, 50 μL of the diluted tankyrase 1 or tankyrase 2 was added to a plate on which the anti-FLAGM 2 monoclonal antibody was immobilized (Anti-FLAG high sensitivity M2 coated plate) (SIGMA Corporation), and was allowed to stand at 4° C. overnight. Thereafter, the plate was washed four times with a PBS buffer containing 0.1% Triton X-100 (PBST buffer).
(§3) Subsequently, the test target compound diluted with an assay buffer (50 mM Tris-HCl (pH 8.0), 4 mM MgCl2, 0.2 mM DTT) (using DMSO as a control) was added to each well of the plate and was allowed to stand at room temperature for 10 minutes. Thereafter, a biotin-labeled NAD solution (225 μM NAD, 25 μM 6-Biotin-17-NAD (Trevigen Inc.)) was added as a donor substrate and mixed with the resultant test target compound, and the reaction was allowed to proceed at 30° C. for 45 minutes. Instead of the biotin-labeled NAD solution, distilled water was added to blank wells. After the reaction, the plate was washed four times with the PBST buffer. Thereafter, HRP (horseradish peroxidase)-labeled streptavidin (Trevigen Inc.) diluted 1,000-fold with the PBS buffer was added to each well, and the reaction was allowed to proceed at room temperature for 20 minutes. After the plate was washed four times with the PBST buffer, a chemiluminescent substrate solution TACS-Sapphire (Trevigen Inc.) was added to each well and the reaction was allowed to proceed at room temperature for 20 minutes. Then, the chemiluminescence intensity was measured using a chemiluminescence measuring apparatus.
(§4) The residual enzyme activity in the presence of the test target compound was determined in accordance with the following formula. Based on the residual enzyme activity at multiple concentrations of the test target compound, an enzyme inhibition activity was calculated as a 50% inhibitory concentration (IC50 value) using data analysis software named Origin (LightStone Corp.).

tankyrase 1 (TNKS 1) = biological target: T2, tankyrase 1 (TNKS 1) (Homo sapiens, UniProt O95271); assay: Tankyrase inhibitory activity test (ELISA, self-polyADP ribosylation), tankyrase 1; format: biochemical; details: tankyrase 1, ELISA, self-polyADP ribosylation; read-out: TNKS1 inhibitory activity (IC50 class)
T2 construct: 1,024-1,327aa; made in house; host or cells: cell-free protein synthesis system
Procedure: as §1, §2, §3, §4

[1] = test system: human colorectal cancer cell line, COLO-320DM; assay: Cell proliferation inhibitory activity test (Celltiter-Glo Luminescent Cell Viability Assay); format: cell-based; details: COLO-320DM cells, 96 hours, read-out: COLO-320 DM cell proliferation inhibitory activity (GI50 class)
Procedure: (Test Example 2) Cell Proliferation Inhibitory Activity Test
The cell proliferation inhibitory activity of the compound obtained in each of Examples against human colorectal cancer cell line, COLO-320DM was evaluated by Celltiter-Glo Luminescent Cell Viability Assay (Promega Corporation, G7573). The COLO-320 DM cells were cultured in a RPMI-1640 medium (Wako Pure Chemical Industries, Ltd., 189-02025) containing 10% fetal bovine serum and 2 mM of glutamine. The cultured cells were washed with PBS and then detached with trypsin/EDTA to prepare a cell solution containing 3×10^4 cells/mL.
Next, the cell solution was seeded in a 96 well microplate (Thermo/Nunc, 136101) in an amount of 70 μL/well and was cultured overnight under conditions at 37° C. with 5% CO2. On the next day, 10 μL/well of a solution in which the test target compound (DMSO solution) was diluted with the cell culture medium (a final DMSO concentration of 1%) was added and the reaction was allowed to proceed under conditions at 37° C. with 5% CO2 for 96 hours (a 1% DMSO solution was used as a control). Subsequently, 80 μL/well of Celltiter-Glo Luminescent Cell Viability Assay reagent (Promega Corporation, G7573) was added, followed by agitation for 2 minutes with a shaker under shielding with aluminum foil. Thereafter, the resultant solution was allowed to stand for reaction at room temperature for 10 minutes.
After that, the luminescent signal was measured with a luminometer (Biotech, Synergy). The cell proliferation inhibitory activity was evaluated by obtaining a percentage of a cell proliferation volume of each compound-added group with respect to a cell proliferation volume (100%) of a control group in which no test target component solution was added, and calculating a value of compound concentration (GI50) required to reduce the remaining cell volume to 50% of the remaining cell volume of the control. […] The results are shown in Tables 120 to 123 together with the results of the tankyrase inhibition activity test.

T2 sequence (O95271 1024-1327): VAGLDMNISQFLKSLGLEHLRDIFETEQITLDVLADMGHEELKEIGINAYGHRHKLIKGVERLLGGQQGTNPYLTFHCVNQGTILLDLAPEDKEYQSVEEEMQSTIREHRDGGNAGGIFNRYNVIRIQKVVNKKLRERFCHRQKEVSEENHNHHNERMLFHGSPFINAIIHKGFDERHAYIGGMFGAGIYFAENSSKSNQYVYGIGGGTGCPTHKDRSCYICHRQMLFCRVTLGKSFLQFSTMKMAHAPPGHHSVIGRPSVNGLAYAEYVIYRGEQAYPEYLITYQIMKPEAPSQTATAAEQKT
T1 sequence (Q9H2K2 613-1166): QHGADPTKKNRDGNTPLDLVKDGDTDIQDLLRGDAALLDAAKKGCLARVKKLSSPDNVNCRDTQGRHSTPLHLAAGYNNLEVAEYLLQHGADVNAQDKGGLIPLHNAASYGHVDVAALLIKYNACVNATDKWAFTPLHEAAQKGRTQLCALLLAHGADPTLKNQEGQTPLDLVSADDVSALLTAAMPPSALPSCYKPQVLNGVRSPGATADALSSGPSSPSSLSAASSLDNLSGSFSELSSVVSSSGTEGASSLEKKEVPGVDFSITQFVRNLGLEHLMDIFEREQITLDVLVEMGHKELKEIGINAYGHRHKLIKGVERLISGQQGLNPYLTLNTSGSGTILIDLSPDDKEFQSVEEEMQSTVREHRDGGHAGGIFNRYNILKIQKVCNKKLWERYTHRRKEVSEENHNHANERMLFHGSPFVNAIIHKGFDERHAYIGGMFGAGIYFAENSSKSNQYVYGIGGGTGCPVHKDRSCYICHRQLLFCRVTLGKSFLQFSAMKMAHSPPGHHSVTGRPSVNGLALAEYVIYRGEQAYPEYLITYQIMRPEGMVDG

Structure (SMILES) | pIC50 (tankyrase 2 (TNKS 2)) | pIC50 (tankyrase 1 (TNKS 1)) | GI50 [1] [µM]
O=c1[nH]c(N2CCC3(CC2)CN(Cc2ccccn2)c2cc(F)cc(F)c23)nc2c1CCCC2 [Example 253, 2-[4,6-difluoro-1-(pyridin-2-yl)methyl-spiro [indoline-3,4′-piperidin]-1′-yl]-5,6,7,8-tetrahydro-quinazolin-4(3H)-one] | > 7.70 | > 7.70 | 0.1 to 0.6
O=c1[nH]c(N2CCC3(CC2)CN(Cc2ccncc2)c2cc(F)cc(F)c23)nc2c1CCCC2 [Example 254, 2-[4,6-difluoro-1-(pyridin-4-yl)methyl-spiro[indoline-3,4′-piperidin]-1′-yl]-5,6,7,8-tetrahydro-quinazolin-4(3H)-one] | > 7.70 | > 7.70 | 0.1 to 0.6
Cc1cccc2c(=O)[nH]c(N3CCC4(CC3)CN(CCO)c3cc(F)cc(F)c34)nc12 [Example 258, 2-[4,6-di-fluoro-1-(2-hydroxy-ethyl)spiro-[indoline-3,4′-piperidin]-1′-yl]-8-methyl-quinazolin-4(3H)-one] | > 7.70 | > 7.70 | 0.6 to 1
O=c1[nH]c(N2CCC3(CC2)CN(CCO)c2cc(F)cc(F)c23)nc2c(CO)cccc12 [Example 259, 2-[4,6-di-fluoro-1-(2-hydroxy-ethyl)spiro-[indoline-3,4′-piperidin]-1′-yl]-8-(hydroxy-methyl)-quinazolin-4(3H)-one] | > 7.70 | > 7.70 | 0.6 to 1
O=C1N(Cc2cccnc2)c2cc(F)cc(F)c2C12CCN(c1nc3c(CO)cccc3c(=O)[nH]1)CC2 [Example 273, 4,6-difluoro-1′-[8-(hydroxymethyl)-4-oxo-3,4-dihydro-quinazolin-2-yl]-1-(pyridin-3-ylmethyl)-spiro[indoline-3,4′-piperidin]-2-one] | > 7.70 | > 7.70 | 0.6 to 1
CN1CCCc2c1nc(N1CCC3(CC1)C(=O)N(C)c1ccccc13)[nH]c2=O [Example 292, 1-methyl-1′-(8-methyl-4-oxo-3,4,5,6,7,8-hexa-hydropyrido-[2,3-d]-pyrimidin-2-yl)-spiro[indoline-3,4′-piperidine]-2-one] | > 7.70 | > 7.70 | 0.1 to 0.6
O=c1[nH]c(N2CCC3(CC2)CN(Cc2ncccn2)c2cc(F)cc(F)c23)nc2c1CCCC2 [Example 316, 2-[4,6-difluoro-1-(pyrimidin-2-yl-methyl)spiro-[indoline-3,4′-piperidine]-1′-yl]-5,6,7,8-tetrahydro-quinazoline-4(3H)-one] | > 7.70 | > 7.70 | 0.1 to 0.6
CN1C(=O)C2(CCN(c3nc4c(c(=O)[nH]3)CCCC4)CC2)c2c(Cl)cc(-c3nc(C(=O)N4CCOCC4)co3)cc21 [Example 323, 4-chloro-1-methyl-6-[4-(morpholine-4-carbonyl)oxazole-2-yl]-1′-(4-oxo-3,4,5,6,7,8-hexa-hydroquinazoline-2-yl)spiro[indoline-3,4′-piperidin]-2-one] | > 7.70 | > 7.70 | 0.6 to 1
CN1CCCc2c1nc(N1CCC3(CC1)C(=O)N(C)c1cc(-c4nc(C(=O)N5CCOCC5)co4)cc(Cl)c13)[nH]c2=O [Example 326, 4-chloro-6-[4-(morpholine-4-carbonyl)-oxazol-2-yl]-1-methyl-1′-(8-methyl-4-oxo-3,4,5,6,7,8-hexahydro-pyrido[2,3-d]-pyrimidin-2-yl)spino-[indoline-3,4′-piperidin]-2-one] | 6.70 to 7.70 | 6.70 to 7.70 | 0.6 to 1
CN1CCCc2c1nc(N1CCC3(CC1)C(=O)N(C)c1c(C#N)ccc(Cl)c13)[nH]c2=O [Example 327, 4-chloro-1-methyl-1′-(8-methyl-4-oxo-3,4,5,6,7,8-hexahydro-pyrido[2,3-d]-pyrimidin-2-yl)-2-oxo-spiro[indoline-3,4′-piperidine]-7-carbonitrile] | > 7.70 | > 7.70 | 0.1 to 0.6
